Patent publication US11566007B2, “Ras inhibitors” (Revolution Medicines, Inc., priority 2019, dated 2023)
Values joined by “and” are separate entries in the source; they are usually repeats but may differ in a detail not shown here. Equal values may be shown once.

Legend:
[1] = test system: NCI-H358 cells (K-Ras G12C); experiment: Potency assay: pERK in NCI-H358 cells; assay type: cell-based, human; conditions: Homo sapiens, NCI-H358; H358 KRAS G12C; read-out: pERK EC50
Outline: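 pERK decrease read by AlphaLISA SureFire p-ERK1/2 or In-Cell Western after 4 h compound exposure at 37 °C, 5% CO2.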

K-Ras G13C = K-Ras G13C (Homo sapiens (Human), UniProt P01116+P62937, G13C); experiment: Ras-Raf (BRAF RBD) disruption / FRET / MOA assay, KRAS G13C; assay type: biochemical; conditions: KRAS G13C; Ras-Raf disruption/FRET/MOA assay; read-out: IC50* KRAS G13C FRET data
Chain of K-Ras G13C (P01116-2 other isoform, or with tags, fused parts or gaps G13C): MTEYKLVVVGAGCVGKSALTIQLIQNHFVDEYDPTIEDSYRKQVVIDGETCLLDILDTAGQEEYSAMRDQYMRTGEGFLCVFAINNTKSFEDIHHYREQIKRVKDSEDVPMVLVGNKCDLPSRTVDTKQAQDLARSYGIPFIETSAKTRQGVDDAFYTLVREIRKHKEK
Chain of K-Ras G13C (P62937 whole entry): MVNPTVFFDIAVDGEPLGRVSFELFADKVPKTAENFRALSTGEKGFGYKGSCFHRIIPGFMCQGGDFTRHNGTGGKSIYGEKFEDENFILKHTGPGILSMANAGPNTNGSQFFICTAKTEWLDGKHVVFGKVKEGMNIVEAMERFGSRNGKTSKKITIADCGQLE
Outline: (§1)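 Compounds, top final concentration 30 μM in 10-point 3-fold series, incubated 3 hours at 25° C with nucleotide-loaded Ras, cyclophilin A and BRAF RBD.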

NRAS G12C = NRAS G12C (Homo sapiens (Human), UniProt P01111+P62937, G12C); experiment: Ras-Raf (BRAF RBD) disruption / FRET / MOA assay, NRAS G12C; assay type: biochemical; conditions: read-out: IC50* NRAS G12C FRET data
Chain of NRAS G12C (P01111 whole entry G12C): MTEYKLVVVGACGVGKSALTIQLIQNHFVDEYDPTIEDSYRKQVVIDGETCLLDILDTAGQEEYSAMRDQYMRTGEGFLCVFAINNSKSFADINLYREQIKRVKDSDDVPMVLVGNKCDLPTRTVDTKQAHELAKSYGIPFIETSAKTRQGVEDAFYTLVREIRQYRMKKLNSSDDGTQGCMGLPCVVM
Chain of NRAS G12C (P62937 whole entry): as the sequence (P62937 whole entry) above
Outline: as §1

KRAS WT = KRAS WT (Homo sapiens (Human), UniProt P01116+P62937); experiment: Ras-Raf (BRAF RBD) disruption / FRET / MOA assay, KRAS WT; assay type: biochemical; conditions: read-out: IC50* KRAS WT FRET data
Chain of KRAS WT (P01116-2 other isoform, or with tags, fused parts or gaps): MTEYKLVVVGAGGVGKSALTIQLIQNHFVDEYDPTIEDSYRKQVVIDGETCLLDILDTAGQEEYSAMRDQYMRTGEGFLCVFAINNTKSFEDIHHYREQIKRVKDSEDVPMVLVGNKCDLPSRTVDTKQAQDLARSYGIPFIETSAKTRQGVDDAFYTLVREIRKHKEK
Chain of KRAS WT (P62937 whole entry): as the sequence (P62937 whole entry) above
Outline: as §1

KRAS G12S = KRAS G12S (Homo sapiens (Human), UniProt P01116+P62937, G12S); experiment: Ras-Raf (BRAF RBD) disruption / FRET / MOA assay, KRAS G12S; assay type: biochemical; conditions: Ras-Raf disruption/FRET/MOA assay; class symbols; read-out: KRAS G12S FRET data IC50
Chain of KRAS G12S (P01116-2 other isoform, or with tags, fused parts or gaps G12S): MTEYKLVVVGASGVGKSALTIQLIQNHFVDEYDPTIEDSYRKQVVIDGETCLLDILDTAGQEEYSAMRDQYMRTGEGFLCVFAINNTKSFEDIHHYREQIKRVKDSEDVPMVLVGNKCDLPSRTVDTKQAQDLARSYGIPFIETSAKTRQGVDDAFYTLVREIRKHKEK
Chain of KRAS G12S (P62937 whole entry): as the sequence (P62937 whole entry) above
Outline: as §1

KRAS G13D = KRAS G13D (Homo sapiens (Human), UniProt P01116+P62937, G13D); experiment: Ras-Raf (BRAF RBD) disruption / FRET / MOA assay, KRAS G13D; assay type: biochemical; conditions: read-out: IC50* KRAS G13D FRET data
Chain of KRAS G13D (P01116-2 other isoform, or with tags, fused parts or gaps G13D): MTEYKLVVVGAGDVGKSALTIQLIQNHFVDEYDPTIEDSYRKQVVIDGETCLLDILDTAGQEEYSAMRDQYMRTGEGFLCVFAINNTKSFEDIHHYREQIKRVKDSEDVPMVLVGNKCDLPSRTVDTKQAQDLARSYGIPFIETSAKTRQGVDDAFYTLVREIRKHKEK
Chain of KRAS G13D (P62937 whole entry, canonical isoform): as the sequence (P62937 whole entry) above
Experimental: The purpose of this biochemical assay is to measure the ability of test compounds to facilitate ternary complex formation between a nucleotide-loaded Ras isoform and cyclophilin A; the resulting ternary complex disrupts binding to a BRAF^RBD construct, inhibiting Ras signaling through a RAF effector.
(§2) Compound is present in plate wells as a 10-point 3-fold dilution series starting at a final concentration of 30 μM. After incubation at 25° C. for 3 hours, a mixture of Anti-His Eu-W1024 and anti-GST allophycocyanin is then added to assay sample wells at final concentrations of 10 nM and 50 nM, respectively, and the reaction incubated for an additional 1.5 hours. […] Compounds that facilitate disruption of a Ras:RAF complex are identified as those eliciting a decrease in the TR-FRET ratio relative to DMSO control wells.
This protocol may also be executed substituting other Ras proteins or nucleotides.
The purpose of this biochemical assay was to measure the ability of test compounds to facilitate ternary complex formation between a nucleotide-loaded K-Ras isoform and Cyclophilin A; the resulting ternary complex disrupts binding to a BRAF^RBD construct, inhibiting K-Ras signaling through a RAF effector. Data is reported as IC50 values.
as §2, with “Compound was” for “Compound is”, “allophycocyanin was” for “allophycocyanin is”, “a K-Ras:RAF” for “a Ras:RAF”, “complex were” for “complex are”

KRAS G12V = KRAS G12V (Homo sapiens (Human), UniProt P01116+P62937, G12V); experiment: Ras-Raf (BRAF RBD) disruption / FRET / MOA assay, KRAS G12V; assay type: biochemical; conditions: read-out: IC50* KRAS G12V FRET data
Chain of KRAS G12V (P01116-2 other isoform, or with tags, fused parts or gaps G12V): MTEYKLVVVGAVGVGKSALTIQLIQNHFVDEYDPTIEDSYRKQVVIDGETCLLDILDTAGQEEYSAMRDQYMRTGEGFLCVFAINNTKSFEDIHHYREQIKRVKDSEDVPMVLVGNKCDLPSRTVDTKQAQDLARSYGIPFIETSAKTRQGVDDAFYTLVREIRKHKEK
Chain of KRAS G12V (P62937 whole entry): as the sequence (P62937 whole entry) above
Outline: as §1

K-Ras G12C = K-Ras G12C (Homo sapiens (Human), UniProt P01116+P62937, G12C); experiment: Ras-Raf (BRAF RBD) disruption / FRET / MOA assay, KRAS G12C; assay type: biochemical; conditions: KRAS G12C; Ras-Raf disruption/FRET/MOA assay; read-out: IC50* KRAS G12C FRET data
Chain of K-Ras G12C (P01116-2 other isoform, or with tags, fused parts or gaps G12C): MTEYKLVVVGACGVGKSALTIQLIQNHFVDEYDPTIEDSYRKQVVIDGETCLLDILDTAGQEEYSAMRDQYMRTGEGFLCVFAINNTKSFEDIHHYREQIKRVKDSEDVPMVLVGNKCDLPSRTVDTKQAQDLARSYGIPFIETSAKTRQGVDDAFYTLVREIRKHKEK
Chain of K-Ras G12C (P62937 whole entry): as the sequence (P62937 whole entry) above
Outline: as §1

KRAS G12D = KRAS G12D (Homo sapiens (Human), UniProt P01116+P62937, G12D); experiment: Ras-Raf (BRAF RBD) disruption / FRET / MOA assay, KRAS G12D; assay type: biochemical; conditions: Ras-Raf disruption/FRET/MOA assay; class symbols; read-out: KRAS G12D FRET data IC50
Chain of KRAS G12D (P01116-2 other isoform, or with tags, fused parts or gaps G12D): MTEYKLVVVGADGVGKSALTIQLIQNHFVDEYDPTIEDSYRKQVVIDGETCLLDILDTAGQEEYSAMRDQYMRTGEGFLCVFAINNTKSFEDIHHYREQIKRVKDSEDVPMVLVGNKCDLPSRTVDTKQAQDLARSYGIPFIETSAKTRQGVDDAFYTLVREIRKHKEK
Chain of KRAS G12D (P62937 whole entry): as the sequence (P62937 whole entry) above
Outline: as §1

Row | EC50 [1] | IC50 (K-Ras G13C) | IC50 (NRAS G12C) | IC50 (KRAS WT) | IC50 (KRAS G12S) | IC50 (KRAS G13D) | IC50 (KRAS G12V) | IC50 (K-Ras G12C) | IC50 (KRAS G12D) | SMILES
1 | < 5000 nM | 10 to 100 nM and 100 to 1000 nM | 10 to 100 nM and < 10 nM | 1000 to 10000 nM and > 10000 nM | 100 to 1000 nM and > 10000 nM | 100 to 1000 nM and > 10000 nM | 100 to 1000 nM and > 10000 nM | 10 to 100 nM and < 10 nM | 1000 to 10000 nM and > 10000 nM | CCn1c(-c2cccnc2COC)c2c3cc(ccc31)-c1cc(O)cc(c1)C[C@H](NC(=O)[C@H](C(C)C)N(C)C(=O)[C@H]1CCN(C(=O)C#C[C@@H]3CCCN3C)C1)C(=O)N1CCC[C@H](N1)C(=O)OCC(C)(C)C2 [Example A196]
2 | < 5000 nM | 100 to 1000 nM and > 10000 nM | 100 to 1000 nM and < 10 nM | 1000 to 10000 nM and > 10000 nM | 1000 to 10000 nM and > 10000 nM | 1000 to 10000 nM and > 10000 nM | 100 to 1000 nM and > 10000 nM | 10 to 100 nM and < 10 nM | > 10000 nM | CCn1c(-c2cccnc2COC)c2c3cc(ccc31)-c1cc(O)cc(c1)C[C@H](NC(=O)[C@H](C(C)C)N(C)C(=O)[C@H]1CCN(C(=O)C#CCN3[C@@H](C)COC[C@@H]3C)C1)C(=O)N1CCC[C@H](N1)C(=O)OCC(C)(C)C2 [Example A209]
3 | < 5000 nM | 1000 to 10000 nM and > 10000 nM | 100 to 1000 nM and 1000 to 10000 nM | 1000 to 10000 nM and > 10000 nM | 1000 to 10000 nM and > 10000 nM | 1000 to 10000 nM and > 10000 nM | 1000 to 10000 nM and > 10000 nM | 100 to 1000 nM and 1000 to 10000 nM | > 10000 nM | C=CC(=O)C1C[C@@H](C(=O)N(C)[C@H](C(=O)N[C@H]2Cc3cc(O)cc(c3)-c3ccc4c(c3)c(c(-c3ccc5c(c3)CN(C)C5)n4CC)CC(C)(C)COC(=O)[C@@H]3CCCN(N3)C2=O)C(C)C)CN1 (stereo partly drawn) [Example A212]
4 | < 5000 nM | 100 to 1000 nM | 10 to 100 nM | 1000 to 10000 nM | 100 to 1000 nM and 1000 to 10000 nM | 1000 to 10000 nM | 100 to 1000 nM and 1000 to 10000 nM | 10 to 100 nM | 1000 to 10000 nM and > 10000 nM | CCn1c(-c2cccnc2COC)c2c3cc(ccc31)-c1cc(O)cc(c1)C[C@H](NC(=O)[C@H](C(C)C)N(C)C(=O)[C@H]1CCN(C(=O)C#CC3(N(C)C)COC3)C1)C(=O)N1CCC[C@H](N1)C(=O)OCC(C)(C)C2 [Example A241]
5 | < 5000 nM | 100 to 1000 nM | 10 to 100 nM | 1000 to 10000 nM | 1000 to 10000 nM | > 10000 nM | 1000 to 10000 nM | 10 to 100 nM | > 10000 nM | CO[C@@H](C)c1ncccc1-c1c2c3cc(ccc3n1CC(F)(F)F)-c1nnc(o1)C[C@H](NC(=O)[C@H](C(C)C)N(C)C(=O)[C@H]1CCN(C(=O)C#CC(C)(C)N3CCC3)C1)C(=O)N1CCC[C@H](N1)C(=O)OCC(C)(C)C2 [Example A423]

Row | SMILES | EC50 [1] | IC50 (K-Ras G13C) | IC50 (NRAS G12C) | IC50 (KRAS WT) | IC50 (KRAS G12S) | IC50 (KRAS G13D) | IC50 (KRAS G12V) | IC50 (K-Ras G12C) | IC50 (KRAS G12D)
6 | C=CC(=O)C1C[C@@H](C(=O)N(C)[C@H](C(=O)N[C@H]2Cc3cc(O)cc(c3)-c3ccc4c(c3)c(c(-c3ccccc3CCOC)n4CC)CC(C)(C)COC(=O)[C@@H]3CCCN(N3)C2=O)C(C)C)[C@@H](OC)N1 (stereo partly drawn) [Example A214] | < 5000 nM | 1 µM to 10 µM (3×) and > 10 µM | 100 nM to 1 µM and > 10 µM (2×) | 1000 to 10000 nM | 1 µM to 10 µM (2×) and > 10 µM (2×) | > 10000 nM | > 10000 nM | 10 nM to 100 nM (2×) and 1 µM to 10 µM (2×) | > 10000 nM
7 | CCn1c(-c2ccccc2CCOC)c2c3cc(ccc31)-c1cc(O)cc(c1)C[C@H](NC(=O)[C@H](C(C)C)N(C)C(=O)c1ccc(NC(=O)/C=C/CN(C)C)cc1)C(=O)N1CCC[C@H](N1)C(=O)OCC(C)(C)C2 [Example A225] | < 5000 nM | 1 µM to 10 µM (3×) and > 10 µM | 100 nM to 1 µM and > 10 µM (2×) | 1000 to 10000 nM | 1 µM to 10 µM (2×) and > 10 µM (2×) | > 10000 nM | > 10000 nM | 10 nM to 100 nM (2×) and 1 µM to 10 µM (2×) | > 10000 nM
